Patent US10456407B2, “Combination therapy for treating cancer” (Epizyme, Inc., priority 2015, dated 2019)

System: WSU-DLCL2 cells
Assay: RT2 Glucocorticoid signaling PCR array, WSU-DLCL2 (WSU) cell line (Table 4c)
Format: cell-based

C[C@]12C=CC(=O)C=C1CC[C@@H]1[C@@H]2[C@@H](O)C[C@@]2(C)[C@H]1CC[C@]2(O)C(=O)CO [Prednisolone, prednisolone]
ΔCT (B2M), MERTK (gene MERTK): 13.379 | Ct Values, MT2A (gene MT2A): 24.518 | ΔCT (B2M), MT2A (gene MT2A): 5.373 | ΔΔCT, MT2A (gene MT2A, compared to DMSO): 0.106 | Ct Values, NFKBIA (gene NFKBIA): 22.895 | ΔCT (B2M), NFKBIA (gene NFKBIA): 3.750 | ΔΔCT, NFKBIA (gene NFKBIA, compared to DMSO): 0.829 | Ct Values, NR3C1 (gene NR3C1): 23.110 | ΔCT (B2M), NR3C1 (gene NR3C1): 3.965 | ΔΔCT, NR3C1 (gene NR3C1, compared to DMSO): 0.165 | Ct Values, PDCD7 (gene PDCD7): 23.874 | ΔCT (B2M), PDCD7 (gene PDCD7): 4.729 | ΔΔCT, PDCD7 (gene PDCD7, compared to DMSO): 0.000 | Ct Values, PDP1 (gene PDP1): 24.957 | ΔCT (B2M), PDP1 (gene PDP1): 5.812 | ΔΔCT, PDP1 (gene PDP1, compared to DMSO): −0.109 | Ct Values, PER1 (gene PER1): 24.989 | ΔCT (B2M), PER1 (gene PER1): 5.844 | ΔΔCT, PER1 (gene PER1, compared to DMSO): 0.185 | Ct Values, PER2 (gene PER2): 24.218 | ΔCT (B2M), PER2 (gene PER2): 5.073 | ΔΔCT, PER2 (gene PER2, compared to DMSO): 0.072 | Ct Values, PIK3R1 (gene PIK3R1): 23.429 | ΔCT (B2M), PIK3R1 (gene PIK3R1): 4.284 | ΔΔCT, PIK3R1 (gene PIK3R1, compared to DMSO): 0.000 | Ct Values, PLD1 (gene PLD1): 35.266 | ΔCT (B2M), PLD1 (gene PLD1): 16.121 | Ct Values, PLEKHF1 (gene PLEKHF1): 26.977 | ΔCT (B2M), PLEKHF1 (gene PLEKHF1): 7.832 | ΔΔCT, PLEKHF1 (gene PLEKHF1, compared to DMSO): 0.077 | Ct Values, POU2F1 (gene POU2F1): 24.368 | ΔCT (B2M), POU2F1 (gene POU2F1): 5.223 | ΔΔCT, POU2F1 (gene POU2F1, compared to DMSO): 0.439 | Ct Values, POU2F2 (gene POU2F2): 22.565 | ΔCT (B2M), POU2F2 (gene POU2F2): 3.420 | ΔΔCT, POU2F2 (gene POU2F2, compared to DMSO): −0.753 | Ct Values, RASA3 (gene RASA3): 23.454 | ΔCT (B2M), RASA3 (gene RASA3): 4.309 | ΔΔCT, RASA3 (gene RASA3, compared to DMSO): −0.193 | Ct Values, RGS2 (gene RGS2): 23.962 | ΔCT (B2M), RGS2 (gene RGS2): 4.817 | ΔΔCT, RGS2 (gene RGS2, compared to DMSO): 1.365 | Ct Values, RHO8 (gene RHO8): 28.803 | ΔCT (B2M), RHO8 (gene RHO8): 9.658 | ΔΔCT, RHO8 (gene RHO8, compared to DMSO): −0.616 | Ct Values, RPLP0 (gene RPLP0): 15.330 | ΔCT (B2M), RPLP0 (gene RPLP0): −3.815 | Ct Values, SESN1 (gene SESN1): 25.915 | ΔCT (B2M), SESN1 (gene SESN1): 6.770 | ΔΔCT, SESN1 (gene SESN1, compared to DMSO): −2.469 | Ct Values, SGK1 (gene SGK1): 27.309 | ΔCT (B2M), SGK1 (gene SGK1): 8.164 | ΔΔCT, SGK1 (gene SGK1, compared to DMSO): 2.035 | Ct Values, SLC10A6 (gene SLC10A6): 37.200 | ΔCT (B2M), SLC10A6 (gene SLC10A6): 18.055 | ΔΔCT, SLC10A6 (gene SLC10A6, compared to DMSO): 0.888 | Ct Values, SLC19A2 (gene SLC19A2): 25.887 | ΔCT (B2M), SLC19A2 (gene SLC19A2): 6.742 | ΔΔCT, SLC19A2 (gene SLC19A2, compared to DMSO): −0.446 | Ct Values, SLC22A5 (gene SLC22A5): 29.427 | ΔCT (B2M), SLC22A5 (gene SLC22A5): 10.282 | ΔΔCT, SLC22A5 (gene SLC22A5, compared to DMSO): 0.831 | Ct Values, SNTA1 (gene SNTA1): 24.329 | ΔCT (B2M), SNTA1 (gene SNTA1): 5.184 | ΔΔCT, SNTA1 (gene SNTA1, compared to DMSO): 0.196 | Ct Values, SPHK1 (gene SPHK1): 29.804 | ΔCT (B2M), SPHK1 (gene SPHK1): 10.659 | ΔΔCT, SPHK1 (gene SPHK1, compared to DMSO): 0.466 | Ct Values, SPSB1 (gene SPSB1): 29.963 | ΔCT (B2M), SPSB1 (gene SPSB1): 10.818 | ΔΔCT, SPSB1 (gene SPSB1, compared to DMSO): 0.655 | Ct Values, STAT5A (gene STAT5A): 25.699 | ΔCT (B2M), STAT5A (gene STAT5A): 6.554 | ΔΔCT, STAT5A (gene STAT5A, compared to DMSO): 0.437 | Ct Values, STAT5B (gene STAT5B): 23.270 | ΔCT (B2M), STAT5B (gene STAT5B): 4.125 | ΔΔCT, STAT5B (gene STAT5B, compared to DMSO): 0.161 | Ct Values, TBL1XR1 (gene TBL1XR1): 21.479 | ΔCT (B2M), TBL1XR1 (gene TBL1XR1): 2.334 | ΔΔCT, TBL1XR1 (gene TBL1XR1, compared to DMSO): 0.182 | Ct Values, TNF (gene TNF): 24.151 | ΔCT (B2M), TNF (gene TNF): 5.006 | ΔΔCT, TNF (gene TNF, compared to DMSO): 0.762 | Ct Values, TNFAIP3 (gene TNFAIP3): 26.733 | ΔCT (B2M), TNFAIP3 (gene TNFAIP3): 7.588 | ΔΔCT, TNFAIP3 (gene TNFAIP3, compared to DMSO): 2.092 | Ct Values, TSC22D3 (gene TSC22D3): 22.481 | ΔCT (B2M), TSC22D3 (gene TSC22D3): 3.336 | ΔΔCT, TSC22D3 (gene TSC22D3, compared to DMSO): −2.728 | Ct Values, USP2 (gene USP2): 20.884 | ΔCT (B2M), USP2 (gene USP2): 1.739 | ΔΔCT, USP2 (gene USP2, compared to DMSO): −1.457 | Ct Values, USPS4 (gene USPS4): 26.453 | ΔCT (B2M), USPS4 (gene USPS4): 7.308 | ΔΔCT, USPS4 (gene USPS4, compared to DMSO): 0.209 | Ct Values, VDR (gene VDR): 29.232 | ΔCT (B2M), VDR (gene VDR): 10.087 | ΔΔCT, VDR (gene VDR, compared to DMSO): −0.565 | Ct Values, VLDLR (gene VLDLR): 30.596 | ΔCT (B2M), VLDLR (gene VLDLR): 11.451 | ΔΔCT, VLDLR (gene VLDLR, compared to DMSO): 2.649 | Ct Values, ZFP36 (gene ZFP36): 25.166 | ΔCT (B2M), ZFP36 (gene ZFP36): 6.021 | ΔΔCT, ZFP36 (gene ZFP36, compared to DMSO): 1.104 | Ct Values, ZHX3 (gene ZHX3): 25.570 | ΔCT (B2M), ZHX3 (gene ZHX3): 6.425 | ΔΔCT, ZHX3 (gene ZHX3, compared to DMSO): 0.101 | Ct Values, ZNF281 (gene ZNF281): 23.608 | ΔCT (B2M), ZNF281 (gene ZNF281): 4.463 | ΔΔCT, ZNF281 (gene ZNF281, compared to DMSO): −0.094
